Assay results from PubChem BioAssay (NCI).
Where “and” joins values, the source holds several entries; their conditions need not be identical. Equal values may be shown once.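 Tested at 5 concentrations; 48 h exposure; 96-well plates; endpoints linearly interpolated, else capped at highest concentration. Here, GI50 denotes the concentration required for 50% inhibition of growth. TGI denotes the concentration required for complete inhibition of growth.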

Experiments:
Test in all cases: NCI-60 cell line screen, 48 h
HCT-15 colon = tested on: HCT-15 colon
T-47D breast = tested on: T-47D breast
UACC-62 melanoma = tested on: UACC-62 melanoma
SNB-75 CNS = tested on: SNB-75 CNS
SK-MEL-2 melanoma = tested on: SK-MEL-2 melanoma
KM12 colon = tested on: KM12 colon
SF-295 CNS = tested on: SF-295 CNS
DU-145 prostate = tested on: DU-145 prostate
IGROV1 ovarian = tested on: IGROV1 ovarian
SR leukemia = tested on: SR leukemia

SMILES	GI50 (HCT-15 colon)	TGI (HCT-15 colon)	GI50 (T-47D breast)	TGI (T-47D breast)	GI50 (UACC-62 melanoma)	TGI (UACC-62 melanoma)	GI50 (SNB-75 CNS)	TGI (SNB-75 CNS)	GI50 (SK-MEL-2 melanoma)	TGI (SK-MEL-2 melanoma)	GI50 (KM12 colon)	TGI (KM12 colon)	GI50 (SF-295 CNS)	TGI (SF-295 CNS)	GI50 (DU-145 prostate)	TGI (DU-145 prostate)	GI50 (IGROV1 ovarian)	TGI (IGROV1 ovarian)	GI50 (SR leukemia)	TGI (SR leukemia)
CC(=O)N[C@@H](Cc1ccc(OP(=O)(O)O)cc1)C(=O)N[C@H]1CCC(=O)N2CCC[C@@H](C(=O)NCc3ccc(O)cc3)N2C1=O	> 25000 nM	> 25 µM	> 25 µM	> 25 µM	> 25 µM	> 25 µM	> 25 µM	> 25 µM	> 25000 nM	> 25 µM	> 25000 nM	> 25 µM	> 25 µM	> 25 µM	> 25000 nM	> 25 µM	> 25000 nM	> 25 µM	> 25000 nM	> 25 µM
COc1ccc(NC(=O)O[C@H]2[C@H](O[C@H]3[C@@H](O)COC(O[C@H]4C[C@H]5[C@@H]6CC=C7C[C@@H](O)CC[C@]7(C)[C@H]6CC[C@]5(C)[C@H]4[C@H](C)C(=O)CCC(C)C)[C@@H]3OC(C)=O)OC[C@@H](O)[C@@H]2O)cc1 (some centres not stated)	73.5 nM	1.23 µM	< 0.01 µM	14.7 µM	< 0.01 µM	< 0.01 µM	< 0.01 µM	6.88 µM	< 10 nM	0.192 µM	32.3 nM	16.4 µM	< 0.01 µM	< 0.01 µM	367 nM	34.7 µM	33.1 nM	> 100 µM	< 10 nM	29.9 µM
COc1cc(C2C(C#N)=C(N)Oc3cc4c(cc32)OCO4)cc2c1OCO2 (configuration not stated)	446 nM	> 100 µM	3.38 µM	> 100 µM	0.285 µM	> 100 µM	0.178 µM	> 100 µM	525 nM	> 100 µM	206 nM	> 46.6 µM	0.209 µM	> 100 µM	362 nM	> 100 µM	724 nM	> 100 µM	69.6 nM	> 100 µM
COc1cc(/C=C/C(=O)c2ccc(Nc3nc(Nc4ccccc4)nc(Nc4ccc(Cl)cc4)n3)cc2)cc(OC)c1OC	8860 nM	> 32.5 µM	3.03 µM	> 32.5 µM	14.7 µM	> 32.5 µM	6.05 µM	> 32.5 µM	> 32500 nM	> 32.5 µM	8830 nM	> 32.5 µM	7.22 µM	> 32.5 µM	> 32500 nM	> 32.5 µM	8170 nM	> 32.5 µM	1070 nM	19.3 µM
CCN(CC)c1ccc2nc3c4ccccc4c(=NC(=O)c4ccccc4-c4c5ccc(N(CC)CC)cc5[o+]c5cc(N(CC)CC)ccc45)cc-3oc2c1	1420 nM	3.9 µM	5.25 µM	17.3 µM	5.73 µM	17.9 µM	8.27 µM	23.5 µM	3400 nM	9.15 µM	2250 nM	7.94 µM	2.96 µM	14.2 µM	1750 nM	3.46 µM	2410 nM	7.49 µM	2740 nM	20.5 µM
CC(C)CNc1nc(N=[N+]=[N-])nc(NCC(C)C)n1	> 10000 nM	> 10 µM	> 10 µM	> 10 µM	> 10 µM	> 10 µM	> 10 µM	> 10 µM	> 10000 nM	> 10 µM	> 10000 nM	> 10 µM	> 10 µM	> 10 µM	> 10000 nM	> 10 µM	> 10000 nM	> 10 µM	> 10000 nM	> 10 µM
O=C(Nc1ccc(S(=O)(=O)NC2CCCCCC2)cc1)C(c1ccccc1)S(=O)(=O)c1ccc(F)cc1 (configuration not stated)	182 nM	2.08 µM	0.717 µM	4.83 µM	0.137 µM	0.69 µM	0.508 µM	2.17 µM	449 nM	2.08 µM	321 nM	1.96 µM	0.349 µM	2.92 µM	261 nM	2.68 µM	237 nM	2.89 µM	410 nM	4.42 µM
CC[C@@]1(OC(=O)CN)C(=O)OCc2c1cc1n(c2=O)Cc2cc3c(N)c4c(cc3nc2-1)OCO4	40.9 nM and 147 nM	> 100 µM	–	> 100 µM	< 0.0001 µM	0.0246 µM	0.000442 µM	0.824 µM	22.6 nM	0.327 µM	13.6 nM and 19.2 nM	0.182 µM and 1.27 µM	< 0.0001 µM	–	< 0.1 nM	–	18 nM	0.342 µM	< 0.1 nM	0.159 µM
c1cnc2c(c1)Nc1cnncc1S2	–	> 100 µM	–	> 100 µM	–	> 100 µM	–	97.8 µM	–	> 100 µM	–	> 100 µM	–	> 100 µM	–	> 100 µM	–	> 100 µM	–	> 100 µM
O=C(/C=C/c1cccc(B(O)O)c1)c1cccc(B(O)O)c1	1550 nM	4.3 µM	2.31 µM	9.58 µM	1.66 µM	4.31 µM	3.61 µM	16.3 µM	2260 nM	5.2 µM	1370 nM	2.79 µM	3.9 µM	15.6 µM	1830 nM	3.79 µM	2520 nM	6.65 µM	314 nM	1.65 µM
O=[N+]([O-])c1ccc(-c2ccccc2)c([As](=O)(O)O)c1	9300 nM	41.2 µM	4.35 µM	49.5 µM	22.5 µM	> 100 µM	15.1 µM	> 100 µM	28200 nM	62.8 µM	39400 nM	> 100 µM	22.3 µM	> 100 µM	11300 nM	29 µM	8350 nM	27.8 µM	10300 nM	57.3 µM
Cc1c(N2C(=O)/C(=C\c3ccc(N(C)C)cc3)N=C2c2ccccc2)c(=O)n(-c2ccccc2)n1C	> 100000 nM	> 100 µM	19.3 µM	> 87.2 µM	> 100 µM	> 100 µM	60.2 µM	> 100 µM	> 100000 nM	> 100 µM	77800 nM	> 100 µM	92 µM	> 100 µM	71300 nM	> 100 µM	24100 nM	> 100 µM	58800 nM	> 100 µM
